Assay results: patent publication US20140249076A1, “AMYLIN-CALCITONIN CHIMERIC PEPTIDES CONJUGATED TO DURATION ENHANCING MOIETIES” (AMYLIN PHARMACEUTICALS, LLC, priority 2011, published 2014)
Numbered stars: 1 amine (or outer) side, 2 acyl side, 3 side chain; on linkers, the order of the positions; unused ones are H or OH. Bridge positions count the residues as written; N and C are the ends. Side chains are listed from the residue outwards. Peptide text beside a SMILES is read from it. * marks the point of attachment. γGlu = O=C(O)[C@H](CCC(=O)[*:2])N[*:1]; Palmitoyl = CCCCCCCCCCCCCCCC(=O)*

test system: mice; experiment: Forced swim test (FST); assay type: in vivo, mouse; conditions: qualitative result; 0.03 mg/kg dosing, as in Example 8
From the text: The forced swim test (FST) is a commonly used paradigm to evaluate antidepressant activity of drugs. The FST is based on measurement of the animal's floating time in a tank filled with water. When rats or mice are forced to swim in a deep cylinder with tepid water they become nearly immobile and cease trying to escape. Without wishing to be bound by any theory, it is believe that this characteristic immobile posture reflects a depressive-like state which is readily influenced by a wide variety of antidepressants. See, e.g., Hedou et al., 2001, Pharmacol, Biochem. Behay. 70:65-76; Chaki et al., 2003, J. Pharmacol. Exp. Ther. 304:818-826; Porsolt et al., 1977, Nature 266:730-732. Antidepressants decrease the immobility time in the FST. Vehicle or test compound can be delivered continuously for two weeks to mice by subcutaneously implanted osmotic pumps prior to the FST. Indeed, any route of administration (e.g., intraperitoneal, subcutaneous, oral and the like) is available. Mice can be placed in the water tank for assessment of climbing, swimming, and immobility over a defined trial session, typically 6 minutes. Test session parameters for mice and rats are typically different, as known in the art.
The forced swim test (FST) is a commonly used paradigm to evaluate antidepressant activity of drugs. […] Specifically, vehicle or test compound was delivered continuously for two weeks to mice by subcutaneously implanted osmotic pumps prior to the FST assay, by methods well known in the art. On day one, the patients were introduced into the tank for a 15 minute pre-swim session. On day two, the patients were placed back into the water tank for assessment of climbing, swimming, and immobility over a 6 minute trial session. The rate of compound infusion was 0.03 mg/kg/day.

| SMILES | FST Assay, 0.03 mg/kg |
| --- | --- |
| CCCCCCCCCCCCCCCC(=O)N[C@@H](CCC(=O)NCCCC[C@H](NC(=O)[C@H](CCC(N)=O)NC(=O)[C@H](CC(C)C)NC(=O)[C@H](CCCNC(=N)N)NC(=O)[C@H](Cc1c[nH]cn1)NC(=O)[C@H](CC(C)C)NC(=O)[C@H](CCC(=O)O)NC(=O)[C@H](CCC(N)=O)NC(=O)[C@H](C)NC(=O)[C@H](CC(C)C)NC(=O)[C@H](CCCNC(=N)N)NC(=O)[C@H](CCC(N)=O)NC(=O)[C@H](CC(C)C)NC(=O)[C@H](C)NC(=O)[C@@H]1CSSC[C@H](NC(=O)[C@@H](N)CCCCN)C(=O)N[C@@H](CC(N)=O)C(=O)N[C@@H]([C@@H](C)O)C(=O)N[C@@H](C)C(=O)N[C@@H]([C@@H](C)O)C(=O)N1)C(=O)N[C@@H](Cc1ccc(O)cc1)C(=O)N1CCC[C@H]1C(=O)N[C@@H](CCCNC(=N)N)C(=O)N[C@H](C(=O)N[C@@H](CC(N)=O)C(=O)N[C@H](C(=O)NCC(=O)N[C@@H](CO)C(=O)N[C@@H](CC(N)=O)C(=O)N[C@H](C(=O)N[C@@H](Cc1ccc(O)cc1)C(N)=O)[C@@H](C)O)C(C)C)[C@@H](C)O)C(=O)O [Cmpd 187, [K^21ε-(γ-Glu(Nα-C16-Chain))]-Cmpd 17] (H-KCNTATCALQRLAQELHRLQK([γGlu-Palmitoyl])YPRTNVGSNTY-NH2; disulfide 2-7 (inferred); N-terminus assumed) | Inactive |
| CCCCCCCCCCCCCCCC(=O)N[C@@H](CCC(=O)NCCCC[C@H](NC(=O)[C@H](Cc1c[nH]cn1)NC(=O)[C@H](CC(C)C)NC(=O)[C@H](CCC(=O)O)NC(=O)[C@H](CCC(N)=O)NC(=O)[C@H](C)NC(=O)[C@H](CC(C)C)NC(=O)[C@H](CCCNC(=N)N)NC(=O)[C@H](CCC(N)=O)NC(=O)[C@H](CC(C)C)NC(=O)[C@H](C)NC(=O)[C@@H]1CSSC[C@H](NC(=O)[C@@H](N)CCCCN)C(=O)N[C@@H](CC(N)=O)C(=O)N[C@@H]([C@@H](C)O)C(=O)N[C@@H](C)C(=O)N[C@@H]([C@@H](C)O)C(=O)N1)C(=O)N[C@@H](CC(C)C)C(=O)N[C@@H](CCC(N)=O)C(=O)N[C@H](C(=O)N[C@@H](Cc1ccc(O)cc1)C(=O)N1CCC[C@H]1C(=O)N[C@@H](CCCNC(=N)N)C(=O)N[C@H](C(=O)N[C@@H](CC(N)=O)C(=O)N[C@H](C(=O)NCC(=O)N[C@@H](CO)C(=O)N[C@@H](CC(N)=O)C(=O)N[C@H](C(=O)N[C@@H](Cc1ccc(O)cc1)C(N)=O)[C@@H](C)O)C(C)C)[C@@H](C)O)[C@@H](C)O)C(=O)O [Cmpd 186, [K^18ε-(γ-Glu(Nα-C16-Chain))]-Cmpd 17] (H-KCNTATCALQRLAQELHK([γGlu-Palmitoyl])LQTYPRTNVGSNTY-NH2; disulfide 2-7 (inferred); N-terminus assumed) | Inactive |
| CCCCCCCCCCCCCCCC(=O)N[C@@H](CCC(=O)NCCCC[C@H](N)C(=O)N[C@@H](CCCCN)C(=O)N[C@H]1CSSC[C@@H](C(=O)N[C@@H](C)C(=O)N[C@@H](CC(C)C)C(=O)N[C@@H](CCC(N)=O)C(=O)N[C@@H](CCCNC(=N)N)C(=O)N[C@@H](CC(C)C)C(=O)N[C@@H](C)C(=O)N[C@@H](CCC(N)=O)C(=O)N[C@@H](CCC(=O)O)C(=O)N[C@@H](CC(C)C)C(=O)N[C@@H](Cc2c[nH]cn2)C(=O)N[C@@H](CCCNC(=N)N)C(=O)N[C@@H](CC(C)C)C(=O)N[C@@H](CCC(N)=O)C(=O)N[C@H](C(=O)N[C@@H](Cc2ccc(O)cc2)C(=O)N2CCC[C@H]2C(=O)N[C@@H](CCCNC(=N)N)C(=O)N[C@H](C(=O)N[C@@H](CC(N)=O)C(=O)N[C@H](C(=O)NCC(=O)N[C@@H](CO)C(=O)N[C@@H](CC(N)=O)C(=O)N[C@H](C(=O)N[C@@H](Cc2ccc(O)cc2)C(N)=O)[C@@H](C)O)C(C)C)[C@@H](C)O)[C@@H](C)O)NC(=O)[C@H]([C@@H](C)O)NC(=O)[C@H](C)NC(=O)[C@H]([C@@H](C)O)NC(=O)[C@H](CC(N)=O)NC1=O)C(=O)O [Cmpd 195, Kε-(γ-Glu(Nα-C16-Chain))-Cmpd 17] (H-K([γGlu-Palmitoyl])KCNTATCALQRLAQELHRLQTYPRTNVGSNTY-NH2; disulfide 3-8; N-terminus assumed) | Active |
| CCCCCCCCCCCCCCCC(=O)N[C@@H](CCC(=O)NCCCC[C@H](NC(=O)[C@H](CCC(N)=O)NC(=O)[C@H](CC(C)C)NC(=O)[C@H](C)NC(=O)[C@@H]1CSSC[C@H](NC(=O)[C@@H](N)CCCCN)C(=O)N[C@@H](CC(N)=O)C(=O)N[C@@H]([C@@H](C)O)C(=O)N[C@@H](C)C(=O)N[C@@H]([C@@H](C)O)C(=O)N1)C(=O)N[C@@H](CC(C)C)C(=O)N[C@@H](C)C(=O)N[C@@H](CCC(N)=O)C(=O)N[C@@H](CCC(=O)O)C(=O)N[C@@H](CC(C)C)C(=O)N[C@@H](Cc1c[nH]cn1)C(=O)N[C@@H](CCCNC(=N)N)C(=O)N[C@@H](CC(C)C)C(=O)N[C@@H](CCC(N)=O)C(=O)N[C@H](C(=O)N[C@@H](Cc1ccc(O)cc1)C(=O)N1CCC[C@H]1C(=O)N[C@@H](CCCNC(=N)N)C(=O)N[C@H](C(=O)N[C@@H](CC(N)=O)C(=O)N[C@H](C(=O)NCC(=O)N[C@@H](CO)C(=O)N[C@@H](CC(N)=O)C(=O)N[C@H](C(=O)N[C@@H](Cc1ccc(O)cc1)C(N)=O)[C@@H](C)O)C(C)C)[C@@H](C)O)[C@@H](C)O)C(=O)O [Cmpd 193, [K^11ε(γ-Glu(Nα-C16-Chain))]-Cmpd 17] (H-KCNTATCALQK([γGlu-Palmitoyl])LAQELHRLQTYPRTNVGSNTY-NH2; disulfide 2-7 (inferred); N-terminus assumed) | Inactive |
| CCCCCCCCCCCCCCCC(=O)N[C@@H](CCC(=O)NCCCC[C@H](N)C(=O)N[C@H]1CSSC[C@@H](C(=O)N[C@@H](C)C(=O)N[C@@H](CC(C)C)C(=O)N[C@@H](CCC(N)=O)C(=O)N[C@@H](CCCNC(=N)N)C(=O)N[C@@H](CC(C)C)C(=O)N[C@@H](C)C(=O)N[C@@H](CCC(N)=O)C(=O)N[C@@H](CCC(=O)O)C(=O)N[C@@H](CC(C)C)C(=O)N[C@@H](Cc2c[nH]cn2)C(=O)N[C@@H](CCCNC(=N)N)C(=O)N[C@@H](CC(C)C)C(=O)N[C@@H](CCC(N)=O)C(=O)N[C@H](C(=O)N[C@@H](Cc2ccc(O)cc2)C(=O)N2CCC[C@H]2C(=O)N[C@@H](CCCNC(=N)N)C(=O)N[C@H](C(=O)N[C@@H](CC(N)=O)C(=O)N[C@H](C(=O)NCC(=O)N[C@@H](CO)C(=O)N[C@@H](CC(N)=O)C(=O)N[C@H](C(=O)N[C@@H](Cc2ccc(O)cc2)C(N)=O)[C@@H](C)O)C(C)C)[C@@H](C)O)[C@@H](C)O)NC(=O)[C@H]([C@@H](C)O)NC(=O)[C@H](C)NC(=O)[C@H]([C@@H](C)O)NC(=O)[C@H](CC(N)=O)NC1=O)C(=O)O [Cmpd 192, [K^1ε-(γ-Glu(Nα-C16-Chain))]-Cmpd 17] (H-K([γGlu-Palmitoyl])CNTATCALQRLAQELHRLQTYPRTNVGSNTY-NH2; disulfide 2-7 (inferred); N-terminus assumed) | Active |
| CCCCCCCCCCCCCCCC(=O)N[C@@H](CCC(=O)NCCCC[C@H](NC(=O)[C@@H]1CCCN1C(=O)[C@H](Cc1ccc(O)cc1)NC(=O)[C@@H](NC(=O)[C@H](CCC(N)=O)NC(=O)[C@H](CC(C)C)NC(=O)[C@H](CCCNC(=N)N)NC(=O)[C@H](Cc1c[nH]cn1)NC(=O)[C@H](CC(C)C)NC(=O)[C@H](CCC(=O)O)NC(=O)[C@H](CCC(N)=O)NC(=O)[C@H](C)NC(=O)[C@H](CC(C)C)NC(=O)[C@H](CCCNC(=N)N)NC(=O)[C@H](CCC(N)=O)NC(=O)[C@H](CC(C)C)NC(=O)[C@H](C)NC(=O)[C@@H]1CSSC[C@H](NC(=O)[C@@H](N)CCCCN)C(=O)N[C@@H](CC(N)=O)C(=O)N[C@@H]([C@@H](C)O)C(=O)N[C@@H](C)C(=O)N[C@@H]([C@@H](C)O)C(=O)N1)[C@@H](C)O)C(=O)N[C@H](C(=O)N[C@@H](CC(N)=O)C(=O)N[C@H](C(=O)NCC(=O)N[C@@H](CO)C(=O)N[C@@H](CC(N)=O)C(=O)N[C@H](C(=O)N[C@@H](Cc1ccc(O)cc1)C(N)=O)[C@@H](C)O)C(C)C)[C@@H](C)O)C(=O)O [Cmpd 188, [K^24ε-(γ-Glu(Nα-C16-Chain))]-Cmpd 17] (H-KCNTATCALQRLAQELHRLQTYPK([γGlu-Palmitoyl])TNVGSNTY-NH2; disulfide 2-7 (inferred); N-terminus assumed) | Inactive |
